Measured values published in PubChem BioAssay (NCI).
“And” between values parts separate entries of the source, which are not always exact repeats. Equal entries are not always repeated.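 A five-concentration, 48-hour dose response in 96-well plates underlies each endpoint, interpolated linearly between surrounding concentrations. GI50: concentration for 50% inhibition of growth. TGI is the concentration that stops growth completely.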

Key:
Assay in all cases: growth of human tumour cells (NCI), 48 h
[1] = test system: DMS 114 small cell lung
[2] = test system: DMS 273 small cell lung
[3] = test system: M19-MEL melanoma
[4] = test system: RXF-631 renal
[5] = test system: HOP-18 NSCLC
[6] = test system: KM20L2 colon
[7] = test system: SNB-78 CNS
[8] = test system: MDA-N
[9] = test system: XF 498 CNS

SMILES | TGI [1] | TGI [2] | TGI [3] | TGI [4] | TGI [5] | TGI [6] | TGI [7] | TGI [8] | TGI [9] | other results
COc1cc(C(=O)N[C@H]2CCc3cc(OC)c(OC)c(OC)c3-c3ccc(SC)c(=O)cc32)cc(OC)c1OC | 0.144 µM | > 100 µM | 25 µM and > 100 µM | > 100 µM |  |  |  |  |  | GI50 [3]: 0.0156 µM
CC1(C)COC2C(N(Cc3ccccc3)Cc3ccccc3)C(=O)N21 (configuration not stated) |  |  | > 100 µM |  | > 100 µM | > 100 µM | > 100 µM |  |  | 
CC(/C=C/C(O)=C1/C(=O)CNC1=O)=C\[C@@H](C)[C@H]1O[C@@]2(C)O[C@H](C(=O)[C@@H]3O[C@@]32C)[C@@H]1C |  |  |  |  |  |  |  | > 100 µM |  | 
CCOC(=O)C1Cc2ccc3c4c(ccc(c24)C1)CC(C(=O)OCC)C3 | > 100 µM | > 100 µM | > 100 µM |  | > 100 µM | > 100 µM | > 100 µM |  | > 100 µM | 
COC(=O)c1cc(=O)nc2cc3cccccc3n12 |  |  | > 100 µM |  | > 100 µM | > 100 µM |  |  | > 100 µM | 
Nc1nc(N)c2cc(Sc3ccc4ccccc4c3)ccc2n1 |  |  |  |  |  |  |  | 4.66 µM |  | 
CC1=Nc2ccccc2SC(c2c(Cl)cccc2Cl)C1 (configuration not stated) | 3.19 µM | 2.19 µM | 2.44 µM |  | 11.1 µM | 2.98 µM | 23.8 µM |  | 3.21 µM | 
CC1CC2(S(=O)(=O)c3ccccc3)ON1CC2S(=O)(=O)c1ccccc1 (configuration not stated) | > 100 µM | > 100 µM | > 100 µM | > 100 µM |  | > 100 µM |  |  | > 100 µM | 
COC(=O)C(=O)C(CC(=O)Nc1ccc(C)cc1)C(=O)OC (configuration not stated) | > 100 µM |  | > 100 µM | > 100 µM | > 100 µM | > 100 µM | > 100 µM |  | > 100 µM | 
CSc1ncnc2c1ncn2CC(=O)C1CCC2C3CCC4=CC(=O)CCC4(C)C3CCC12C (configuration not stated) |  |  |  |  |  |  |  | 12.4 µM |  | 
CN/N=C(/c1nc2ccc([N+](=O)[O-])cc2[nH]c1=O)C(O)c1ccc(C(O)/C(=N\NC)c2nc3ccc([N+](=O)[O-])cc3[nH]c2=O)cc1 (configuration not stated) | > 100 µM | > 100 µM | > 100 µM | > 100 µM |  | > 100 µM | > 100 µM |  |  | 
CCCC(=O)N[C@H]1CCc2cc(OC)c(OC)c(OC)c2-c2ccc(SC)c(=O)cc21 | < 0.01 µM | > 100 µM | > 100 µM | 1.42 µM | > 100 µM | < 0.01 µM | > 100 µM | < 0.01 µM |  | 
CC(=O)c1cccc(NC(=O)C(=O)c2c(O)c3ccccc3oc2=O)c1 |  |  |  |  |  |  |  | > 100 µM |  | 
C#CCN(N=O)C(=O)ON1C(=O)CCC1=O | > 100 µM | > 100 µM | > 100 µM |  | > 100 µM | > 100 µM | > 100 µM |  |  | 
COc1ccc(/C=C2\CCC(CCN(C)C)(C3=CCCC3)C2=O)cc1 (configuration not stated) | 31.2 µM | 31.1 µM | 28.4 µM |  | 66.5 µM | 28.3 µM | 56.2 µM |  |  | 
O=C1c2ccccc2C(=O)C12CCc1ccccc12 | > 100 µM | > 100 µM | > 100 µM | > 100 µM | > 100 µM | > 100 µM | > 100 µM |  | > 100 µM | 
O=[N+]([O-])c1cc([As](Br)c2ccc(O)c([N+](=O)[O-])c2)ccc1O |  |  |  |  |  |  |  | 3.4 µM |  | 
COC(=O)C(C(=O)C(=O)Nc1ccc(C)cc1C)c1csc(-n2nc(-c3ccccc3)cc2-c2ccccc2)n1 (configuration not stated) | > 100 µM | > 100 µM | > 100 µM | > 100 µM | > 100 µM | > 100 µM | > 100 µM |  | > 100 µM | 
O=c1c2c(-c3ccccc3)c3ccccc3nc2cnn1-c1ccccc1 | > 100 µM | > 100 µM | > 100 µM |  | > 100 µM | > 100 µM | > 100 µM |  |  | 
COc1cccc(-c2cc(=O)c3cc4c(cc3[nH]2)OCO4)c1 | > 100 µM |  | > 100 µM | > 100 µM | > 100 µM |  | > 100 µM |  | 2.59 µM | 

SMILES | TGI [1] | TGI [2] | TGI [3] | TGI [4] | TGI [5] | TGI [6] | TGI [7] | TGI [8] | TGI [9] | other results
N=c1c2ccccc2sc2nc3ccccc3n12 | > 100 µM | > 100 µM | > 100 µM |  | > 100 µM |  | > 100 µM |  | > 100 µM | 
COc1ccc2c(c1)CN([C@@H](C)[C@H]1CC[C@H]3[C@@H]4CC[C@H]5C[C@@H](O)CC[C@]5(C)[C@H]4CC[C@]13C)CO2 |  |  |  |  |  |  |  | 3.38 µM |  | 
CCCc1nc(Cl)nc(Cl)c1Cl |  |  |  |  |  |  |  | 0.398 µM |  | 
OC1=CN=COc2ccccc21 | > 100 µM | > 100 µM | > 100 µM | > 100 µM |  | > 100 µM | > 100 µM |  |  | 
CN(C)N1C(=O)SCC(c2ccccc2)(c2ccccc2)C1=O |  |  |  |  |  |  |  | > 100 µM |  | 
C=C1C(=O)C23[C@H](O)C1CC[C@H]2[C@]12COC3(O)[C@@H](O)[C@@H]1C(C)(C)CC[C@@H]2O | 21.3 µM | 27.3 µM | 26.3 µM | 22.7 µM | 24.6 µM | 28.3 µM | 16.4 µM |  | 9.82 µM | 
O=C1/C(=C\c2ccco2)Oc2ccccc21 |  |  |  |  |  |  |  | > 100 µM |  | 
CC(=O)c1ccc(NC(=O)C(=O)C(C(=O)/C=C/c2ccccc2)C2OC(=O)c3ccccc32)cc1 (configuration not stated) |  | > 100 µM | > 100 µM | > 100 µM | > 100 µM | > 100 µM | > 100 µM |  | > 100 µM | 
CC(=O)OC(C(=O)[O][Sn]([CH3])([CH3])[CH3])c1ccccc1 (configuration not stated) | > 100 µM |  | > 100 µM | > 100 µM | > 100 µM | > 100 µM | > 100 µM |  |  | GI50 [1]: > 100 µM; GI50 [5]: > 100 µM; GI50 [6]: > 100 µM; GI50 [3]: > 100 µM; GI50 [4]: > 100 µM; GI50 [7]: > 100 µM
CCOc1ccc(N=C(NC(=O)c2ccccc2)SC)cc1 | > 100 µM | > 100 µM | > 100 µM |  | > 100 µM | > 100 µM | > 100 µM |  |  | 
COC/N=C(\NC#N)NCOC | > 72.5 µM | > 81.5 µM | > 100 µM | > 100 µM | > 100 µM | > 100 µM |  |  | > 100 µM | 
COc1ccccc1-c1cc(=O)c2cc(C)c(C)c(C(=O)O)c2o1 | > 100 µM | > 100 µM | > 100 µM |  |  | > 100 µM | > 100 µM |  | > 100 µM | 
COc1ccc(/C=C(\NC(=O)c2ccccc2)c2nc3ccccc3[nH]2)cc1OC | > 100 µM |  | > 100 µM | > 100 µM | > 100 µM | > 100 µM | > 100 µM |  | > 100 µM | 
CCOc1ccc(N=C2NC(=O)C(CC(=O)Nc3ccccc3[N+](=O)[O-])S2)cc1 (configuration not stated) | > 100 µM | > 100 µM | > 100 µM |  |  | > 100 µM | > 100 µM |  | > 100 µM | 
O=C1CCC2(c3ccccc3)Nc3ccccc3N12 (configuration not stated) | > 100 µM |  | > 100 µM | > 100 µM |  | > 100 µM | > 100 µM |  | > 100 µM | 
CCOc1cccc2c1N[S@@](=O)S2 |  | > 100 µM | > 100 µM | > 100 µM |  | > 100 µM | > 100 µM |  | > 100 µM | 
C=CC(C)(C)n1cc(C2=C(O)C(=O)C(c3cn(C(C)(C)C=C)c4ccccc34)=C(O)C2=O)c2ccccc21 |  |  |  |  |  |  |  | 4.98 µM |  | 
CO[C@H]1/C=C/O[C@@]2(C)Oc3c(C)c(O)c4c(O)c(c(/C=N/N5CCN(C)CC5)c(O)c4c3C2=O)NC(=O)/C(C)=C\C=C\[C@H](C)[C@H](O)[C@@H](C)[C@@H](O)[C@@H](C)[C@H](OC(C)=O)[C@@H]1C |  |  |  |  |  |  |  | > 100 µM |  | 
CCC1=CCN(c2cc(C)ccn2)OC1c1ccccc1 (configuration not stated) | > 100 µM | > 100 µM | > 100 µM | 73.1 µM | > 100 µM | > 100 µM | > 100 µM |  | 71.2 µM | 
COc1cc2c(c3c1c(=O)c1ccccc1n3C)C=CC(C)(C)O2 | > 100 µM | > 100 µM | > 100 µM |  | > 100 µM | > 100 µM | > 100 µM |  |  | 
